This assay relates to Oxaliplatin induced peripheral neuropathy in rat. Nature of the assay: Cold hyperalgesia method (tail immersion test), oxaliplatin induced peripheral neuropathy. The class given is in vivo, Wistar. Particulars: for % (average tail immersion time relative to 20.00 of normal control): Table 2, doses of Table 1 p.o.; for % (average tail immersion time relative to 20.00 of normal control) / Duration of tail immersion, AVG / Duration of tail immersion, Animal Mark 1 / Duration of tail immersion, Animal Mark 2 / Duration of tail immersion, Animal Mark 3 / Duration of tail immersion, Animal Mark 4 / Duration of tail immersion, Animal Mark 5 / Duration of tail immersion, Animal Mark 6: rat; for % (average tail immersion time relative to 20.00 of normal control) / Duration of tail immersion, AVG: n=6; for % (Day 4 relative to 20.00) / Tail immersion time, Day 0 / Tail immersion time, Day 4: Table 3, groups named by human effective dose/day; for Duration of tail immersion, AVG / Duration of tail immersion, Animal Mark 1 / Duration of tail immersion, Animal Mark 2 / Duration of tail immersion, Animal Mark 3 / Duration of tail immersion, Animal Mark 4 / Duration of tail immersion, Animal Mark 5 / Duration of tail immersion, Animal Mark 6: p.o. Day 1-3 at doses of Table 1, 24 hrs after oxaliplatin 12 mg/kg i.p., cut-off 20 seconds. Here is the method:
Example 21—Animal Study—Screening effect of synergistic combination or composition/formulation comprising PEA and other natural ingredients against Oxaliplatin induced peripheral neuropathy in rat.
• Species: Rat (Rattus norvegicus); • Strain: Wistar; Sex: Male/Female • No. of animals: 54 Animals (n=6 per group) • Animal House conditions: • Lighting: 12/12 hour light-dark cycle • Temperature: 25±2° C. • Relative Humidity: 30 to 70% • Temperature and relative humidity were recorded Thrice daily.
EXPERIMENTAL PROCEDURE: In study fifty-four (54) rats, were divided into total nine (09) groups. Group 1 served as the normal control, Group 2 served as the disease control, Group 3, Group 4 and Group 5 served as component (A, B and C), Group 6, Group 7 and Group 8 served as formulation of test drug, while Group 9 served as the Reference standard group. For these studies, the following combinations were used.
Group-1 received vehicle (0.25% w/v Sodium CMC) orally (p.o.) for three consecutive days (Day 1, 2 & 3). Group-2 to Group-8 received test drugs, while Group 9 received Pregabalin orally (p.o.) on Day-1, Day-2 and Day-3. All treatment groups (Group 2 to 9) were administered with oxaliplatin (12 mg/kg, i.p.) on Day-3 prior to 2 hrs of test drug administration. After 24 hrs of oxaliplatin administration, treated groups as well as the normal control group were assessed using the Cold hyperalgesia method.
Cold Hyperalgesia method (Tail Immersion Test): In the Tail-immersion test, water was maintained at low (0 to 4-C) temperature. The tail of the rat was immersed in cold water and the duration (time in seconds) of tail immersion was recorded, until the tail was withdrawn from water. The cut-off time of 20 seconds was used. The decrease in tail contact time with cold water was indicative pain whereas prolonged contact time was noted as anti-allodynic effect.

The values below come from patent US12138242B1, “Controlling neuropathic pain” (Frimline Private Limited, priority 2017, dated 2024).

The structures appear in SMILES notation.

Turning to `O=c1c(-c2ccc(O)cc2)coc2cc(O)ccc12` [Daidzein], the “% (average tail immersion time relative to 20.00 of normal control)” value came out at 41.38%; the “% (Day 4 relative to 20.00)” value is on record as 41.38%; the “Tail immersion time, Day 0” value is reported as 20.00; the “Tail immersion time, Day 4” value is on record as 8.28. In addition, the “Duration of tail immersion, AVG” value amounted to 8.28 s; the “Duration of tail immersion, Animal Mark 1” value (“Duration … Animal Mark 1” below) amounted to 8.55 s; the “Duration of tail immersion, Animal Mark 2” value (“Duration … Animal Mark 2” below) came to 8.00 s; the “Duration of tail immersion, Animal Mark 3” value (“Duration … Animal Mark 3” below) amounted to 8.98 s. For the same compound, the “Duration of tail immersion, Animal Mark 4” value (“Duration … Animal Mark 4” below) was 7.95 s; the “Duration of tail immersion, Animal Mark 5” value (“Duration … Animal Mark 5” below) stood at 8.12 s; the “Duration of tail immersion, Animal Mark 6” value (“Duration … Animal Mark 6” below) was found to be 8.05 s.

Consider `O=c1c(-c2ccc(O)cc2)coc2cc(O)cc(O)c12` [Genistein], for which the “% (average tail immersion time relative to 20.00 of normal control)” value is 37.58%; the “% (Day 4 relative to 20.00)” value came to 37.58%; the “Tail immersion time, Day 0” value was 20.00; the “Tail immersion time, Day 4” value was 7.52. The “Duration of tail immersion, AVG” value came out at 7.52 s; the “Duration … Animal Mark 1” value is 7.68 s; the “Duration … Animal Mark 2” value amounted to 7.15 s; the “Duration … Animal Mark 3” value amounted to 7.23 s. The “Duration … Animal Mark 4” value was 7.68 s; the “Duration … Animal Mark 5” value worked out at 7.68 s; the “Duration … Animal Mark 6” value was determined as 7.68 s.

For the compound `CCCCCCCCCCCCCCCC(=O)NCCO` [PEA, Palmitoylethanolamide], the “% (average tail immersion time relative to 20.00 of normal control)” value is given as 55.73%; the “% (Day 4 relative to 20.00)” value came out at 55.73%; the “Tail immersion time, Day 0” value was 20.00; the “Tail immersion time, Day 4” value came out at 11.15. Moreover, the “Duration of tail immersion, AVG” value came out at 11.15 s; the “Duration … Animal Mark 1” value turned out to be 11.32 s; the “Duration … Animal Mark 2” value came out at 11.55 s; the “Duration … Animal Mark 3” value turned out to be 10.85 s. For the same compound, the “Duration … Animal Mark 4” value was determined as 10.97 s; the “Duration … Animal Mark 5” value was 11.44 s; the “Duration … Animal Mark 6” value was determined as 10.75 s.

As for `CC(C)C[C@H](CN)CC(=O)O` [Pregabalin, reference compound], the “% (average tail immersion time relative to 20.00 of normal control)” value was 96.27%; the “% (Day 4 relative to 20.00)” value amounted to 96.27%; the “Tail immersion time, Day 0” value is on record as 20.00; the “Tail immersion time, Day 4” value is reported as 19.25. The “Duration of tail immersion, AVG” value was 19.25 s; the “Duration … Animal Mark 1” value was determined as 17.20 s; the “Duration … Animal Mark 2” value turned out to be 20.00 s; the “Duration … Animal Mark 3” value amounted to 20.00 s. In addition, the “Duration … Animal Mark 4” value worked out at 19.95 s; the “Duration … Animal Mark 5” value stood at 18.37 s; the “Duration … Animal Mark 6” value stood at 20.00 s.
